Assay results from PMC12391121, “Identification and validation of the VEGF/p38MAPK/HSP27 pro-tumor inflammatory pathway: screening of active components from Patrinia villosa and evaluation of their drug-likeness” (Frontiers in Immunology, 2025).

Assays:
p38MAPK = target: T1, p38MAPK (Homo sapiens, UniProt Q16539); assay: microscale thermophoresis; type: binding
T1 construct: gene MAPK14; commercial recombinant human protein; labelled with Monolith RED-NHS

HSP27 = target: T2, HSP27 (Homo sapiens, UniProt P04792); assay: microscale thermophoresis; type: binding
T2 construct: gene HSPB1; commercial recombinant human protein; labelled with Monolith RED-NHS
T2 sequence (P04792 whole entry): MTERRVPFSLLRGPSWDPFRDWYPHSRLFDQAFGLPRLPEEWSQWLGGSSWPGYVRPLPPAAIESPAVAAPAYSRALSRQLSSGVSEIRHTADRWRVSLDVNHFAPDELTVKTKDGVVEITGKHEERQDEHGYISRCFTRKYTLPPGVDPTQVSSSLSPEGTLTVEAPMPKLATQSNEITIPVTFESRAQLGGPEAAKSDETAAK
Text: microscale thermophoresis on HSP27

T1 sequence (Q16539 2-360): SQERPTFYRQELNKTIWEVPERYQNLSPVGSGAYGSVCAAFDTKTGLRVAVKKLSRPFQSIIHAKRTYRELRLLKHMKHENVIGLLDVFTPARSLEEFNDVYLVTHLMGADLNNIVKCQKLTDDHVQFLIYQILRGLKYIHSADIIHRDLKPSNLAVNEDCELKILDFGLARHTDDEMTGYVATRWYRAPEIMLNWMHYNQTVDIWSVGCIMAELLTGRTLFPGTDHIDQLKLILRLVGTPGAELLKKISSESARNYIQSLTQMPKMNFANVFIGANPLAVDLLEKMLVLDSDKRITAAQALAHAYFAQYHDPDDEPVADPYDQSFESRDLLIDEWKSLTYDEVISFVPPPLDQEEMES

Row | Kd (p38MAPK) [µM] | Kd (HSP27) [µM] | Compound
1 | 1.71 | 3.64 | O=C(/C=C/c1ccc(O)c(O)c1)O[C@@H]1[C@H](O)C[C@@](O)(C(=O)O)C[C@H]1OC(=O)/C=C/c1ccc(O)c(O)c1 [4,5-Dicqa]
2 | 1.4 | 4.47 | C[C@@H]1O[C@@H](OC[C@H]2O[C@@H](Oc3c(-c4ccc(O)cc4)oc4cc(O)cc(O)c4c3=O)[C@H](O)[C@@H](O)[C@@H]2O)[C@H](O)[C@H](O)[C@H]1O [Nicotiflorin]
3 | 1.27 | 3.76 | C[C@@H]1O[C@@H](OC[C@H]2O[C@@H](Oc3c(-c4ccc(O)c(O)c4)oc4cc(O)cc(O)c4c3=O)[C@H](O)[C@@H](O)[C@@H]2O)[C@H](O)[C@H](O)[C@H]1O [Rutin]
4 |  | 0.915 | C[S+]([O-])c1ccc(-c2nc(-c3ccncc3)c(-c3ccc(F)cc3)[nH]2)cc1 (stereo not shown) [SB203580]
